Reference: patent US20240018153A1, “BENZENESULFONAMIDE DERIVATIVES AND USES THEREOF” (2692372 ONTARIO, INC., priority 2020, published 2024)

Experiments:
β-Tubulin = experiment: K562 cell lysis and immunoassay, β-tubulin degradation; assay type: cell-based; design: key: Y: β-tubulin bound in cells and tubulin degradation occurred; conditions: K562 cells
Protocol: K562 cells (ATCC) were cultured in Iscove's Modified Dulbecco's Medium (IMDM) (Wisent) supplemented with 10% FBS and 1% penicillin/streptomycin. Cells were seeded in 6-well plates at 1.71×10^6 cells/well and incubated at 37° C., 5% CO2 for 16 hours. Cells were treated with compounds at the indicated concentrations or DMSO alone and incubated at 37° C., 5% CO2 for 24 hours. Cell suspensions were centrifugated at 1,400 RPM for 5 minutes at room temperature and supernatants were discarded. Cell pellets were resuspended with 1× RIPA buffer (Millipore) and incubated on ice for 15 minutes. Protein lysates were extracted by centrifugating at 20,000 RPM for 20 minutes at 4° C. Proteins were separated and total β-Tubulin levels were quantified by Simple Western Immunoassay (ProteinSimple) using the Protein Normalization Assay Module for Jess (ProteinSimple) according to the manufacturer's protocol, using a protein concentration of 0.05 μg/μl and an antibody targeting β-Tubulin (Abcam) diluted to 1:800. β-Tubulin levels were quantified relative to the Protein Normalization Reagent and subsequently normalized to the DMSO control.

BTK = BTK (Homo sapiens (Human), UniProt Q06187); experiment: HTRF KinEASE-TK kinase assay, BTK; assay type: biochemical; conditions: 3 h preincubation; for remaining activity at 1 µM: 1 μM compound, read-out: % BTK Remaining activity vs DMSO (1 μM, 3 h); for remaining activity at 10 µM: 10 μM compound, read-out: % BTK Remaining activity vs DMSO (10 μM, 3 h)
BTK, sequence (Q06187 whole entry): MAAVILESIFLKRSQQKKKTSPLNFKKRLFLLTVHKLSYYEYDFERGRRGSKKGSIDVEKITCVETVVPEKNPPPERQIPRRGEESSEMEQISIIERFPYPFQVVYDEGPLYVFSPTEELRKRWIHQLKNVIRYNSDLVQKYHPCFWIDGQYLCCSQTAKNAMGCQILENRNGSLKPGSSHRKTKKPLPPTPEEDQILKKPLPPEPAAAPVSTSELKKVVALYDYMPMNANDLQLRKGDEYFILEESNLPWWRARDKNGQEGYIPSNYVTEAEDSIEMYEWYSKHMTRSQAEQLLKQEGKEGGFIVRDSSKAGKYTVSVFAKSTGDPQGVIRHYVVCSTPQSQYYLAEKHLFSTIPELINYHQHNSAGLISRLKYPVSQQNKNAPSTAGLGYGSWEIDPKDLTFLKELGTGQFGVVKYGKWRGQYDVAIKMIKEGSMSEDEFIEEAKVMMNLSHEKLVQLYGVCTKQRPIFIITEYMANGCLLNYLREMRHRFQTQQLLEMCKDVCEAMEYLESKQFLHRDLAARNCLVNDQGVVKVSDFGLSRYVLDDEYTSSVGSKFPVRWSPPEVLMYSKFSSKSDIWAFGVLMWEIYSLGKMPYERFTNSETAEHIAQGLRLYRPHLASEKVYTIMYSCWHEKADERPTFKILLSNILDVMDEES
Method in brief: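 BTK activity in HTRF KinEASE-TK format, buffer containing 10 mM MnCl2, 5 mM MgCl2, 1 uM ATPγS and 1 mM TCEP; 45 min reaction with biotinylated substrate and ATP.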

[1] = molecular target: His-tagged BTK protein (SEQ ID NO: 1) (Homo sapiens (Human), UniProt Q06187); experiment: Intact mass analysis (LC-MS/MS) of covalent modification; assay type: binding; conditions: His-tagged BTK (unmodified 32,650 Da) incubated with compound
His-tagged BTK protein (SEQ ID NO: 1), sequence (Q06187 other isoform, or with tags, fused parts or gaps): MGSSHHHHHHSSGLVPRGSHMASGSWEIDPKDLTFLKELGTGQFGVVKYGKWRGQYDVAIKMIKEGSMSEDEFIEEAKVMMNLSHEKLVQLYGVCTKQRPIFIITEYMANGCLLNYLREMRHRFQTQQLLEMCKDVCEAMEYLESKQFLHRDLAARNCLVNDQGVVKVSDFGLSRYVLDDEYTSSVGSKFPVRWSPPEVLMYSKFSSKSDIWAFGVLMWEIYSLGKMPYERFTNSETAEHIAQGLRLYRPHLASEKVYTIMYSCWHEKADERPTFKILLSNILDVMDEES
Protocol: The covalent modification of the proteins with the compounds were evaluated using intact mass analysis by liquid chromatography-mass spectrometry instrument (LC-MS/MS).
The reaction solution (20 μL) was prepared in 96-well plate and contained the protein (2 μM), the compound (100 μM), HEPES buffer (20 mM, pH 8), 2% DMSO, 2% glycerol, and 150 mM NaCl. The reaction was allowed to proceed for 24 h at 25° C. The reaction solution (1 μL) was injected into the LC/MS/MS without any further sample preparation.
The LC-MS/MS instrument comprises of a Waters G2-XS quadrupole-time of flight (QTof) mass spectrometer and a Waters Acuity I-class Ultra-High Performance Liquid Chromatography (UPLC) system. The I-class UPLC system includes a binary solvent manager (BSM), and a Acquity sample manager (SM). The mobile phase consisted of: A) 0.1% (v/v) formic acid in MilliQ water; B) 0.1% (v/v) formic acid acetonitrile. Gradients were run over 5 min and proceeded as follows: A:B, 85:15, 0.0-0.7 min, 85:15→15:85, 0.7-1.5 min, 10:90, 1.5-4 min, 10:90→85:15, 4-4.5 min, 85:15, 4.5-5 min. The analytical column was a Waters BEH C4 column 1.7 μm (50×1 mm) column with pore sizes of […]. The TOF MS data was collected in positive ion mode (m/z of 400-2000 Da) using MassLynx software (Waters).
The spectral deconvolution was performed using UNIFI software (Waters). The added mass of the protein upon covalent modification to cysteine residues were specified. Multiple modification of up to 8 cysteine was allowed. All the adducts with signal intensities of <2% of the base peak were ignored. The % modification was calculated as the adduct signal intensity over the total intensities of the protein peaks and the adducts.

FGFR4 = FGFR4 (Homo sapiens (Human), UniProt P22455); experiment: HTRF KinEASE-TK kinase assay, FGFR4; assay type: biochemical; conditions: for remaining activity at 1 µM: read-out: % FGFR4 Remaining activity vs DMSO (1 μM, 3 h); for remaining activity at 10 µM: read-out: % FGFR4 Remaining activity vs DMSO (10 μM, 3 h)
FGFR4, sequence (P22455 22-802): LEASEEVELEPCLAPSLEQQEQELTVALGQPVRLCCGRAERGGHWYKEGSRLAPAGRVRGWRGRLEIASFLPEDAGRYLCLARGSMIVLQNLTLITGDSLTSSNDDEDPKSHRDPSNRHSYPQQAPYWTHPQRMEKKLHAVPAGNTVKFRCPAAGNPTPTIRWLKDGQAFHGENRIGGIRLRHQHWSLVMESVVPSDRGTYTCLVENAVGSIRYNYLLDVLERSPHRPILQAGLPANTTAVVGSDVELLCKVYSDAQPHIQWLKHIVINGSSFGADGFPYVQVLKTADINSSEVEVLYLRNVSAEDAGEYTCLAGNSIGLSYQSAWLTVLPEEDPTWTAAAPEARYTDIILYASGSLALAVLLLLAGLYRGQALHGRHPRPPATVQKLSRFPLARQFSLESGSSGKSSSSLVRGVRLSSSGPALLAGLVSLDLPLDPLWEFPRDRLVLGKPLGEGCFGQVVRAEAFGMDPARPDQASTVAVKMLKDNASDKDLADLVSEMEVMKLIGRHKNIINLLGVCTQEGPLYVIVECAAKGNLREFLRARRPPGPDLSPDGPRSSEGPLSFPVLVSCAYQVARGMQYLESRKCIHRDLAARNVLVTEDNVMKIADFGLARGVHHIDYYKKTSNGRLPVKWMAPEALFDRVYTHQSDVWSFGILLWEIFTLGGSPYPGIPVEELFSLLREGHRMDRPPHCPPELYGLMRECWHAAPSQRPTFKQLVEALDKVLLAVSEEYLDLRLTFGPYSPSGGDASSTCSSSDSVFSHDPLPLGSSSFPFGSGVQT
Method in brief: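 Promega FGFR4 at 0.333 ng/ul (5.12 nM) preincubated with or without inhibitor for 3 h at room temperature, then reaction started with biotinylated substrate and ATP. Stopped with EDTA detection buffer containing 31.25 nM SA-XL665 and Eu-antibody; after 60 min, HTRF 665/620 nm ratio read as substrate phosphorylation.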

JAK3 = JAK3 (Homo sapiens (Human), UniProt P52333); experiment: HTRF KinEASE-TK kinase assay, JAK3; assay type: biochemical; conditions: for remaining activity at 1 µM: read-out: % JAK3 Remaining activity vs DMSO (1 μM, 3 h); for remaining activity at 10 µM: read-out: % JAK3 Remaining activity vs DMSO (10 μM, 3 h)
JAK3, sequence (P52333 781-1124): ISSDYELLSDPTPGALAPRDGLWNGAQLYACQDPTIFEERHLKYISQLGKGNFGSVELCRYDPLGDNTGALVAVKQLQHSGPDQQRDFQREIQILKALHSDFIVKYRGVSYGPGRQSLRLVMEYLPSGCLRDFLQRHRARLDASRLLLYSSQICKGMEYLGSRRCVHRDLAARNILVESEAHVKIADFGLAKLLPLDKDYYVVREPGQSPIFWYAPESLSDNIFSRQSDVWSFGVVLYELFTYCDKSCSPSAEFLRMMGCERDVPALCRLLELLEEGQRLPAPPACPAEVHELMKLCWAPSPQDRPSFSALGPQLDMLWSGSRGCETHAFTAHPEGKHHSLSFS
Method in brief: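 Promega JAK3 at 0.21 nM was preincubated with inhibitor for 3 h at room temperature before biotinylated substrate and ATP were added. The reaction was stopped with EDTA detection buffer containing 31.25 nM SA-XL665 and Eu-antibody. After 60 min, the HTRF 665/620 nm emission ratio reflected substrate phosphorylation.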

EGFR [2] = molecular target: T1, EGFR (Homo sapiens (Human), UniProt P00533); experiment: HTRF KinEASE-TK kinase assay, EGFR; assay type: biochemical; conditions: 3 h preincubation; for remaining activity at 1 µM: 1 μM compound, read-out: % EGFR Remaining activity vs DMSO (1 μM, 3 h); for remaining activity at 10 µM: 10 μM compound, read-out: % EGFR Remaining activity vs DMSO (10 μM, 3 h)
T1 sequence (P00533 25-1210): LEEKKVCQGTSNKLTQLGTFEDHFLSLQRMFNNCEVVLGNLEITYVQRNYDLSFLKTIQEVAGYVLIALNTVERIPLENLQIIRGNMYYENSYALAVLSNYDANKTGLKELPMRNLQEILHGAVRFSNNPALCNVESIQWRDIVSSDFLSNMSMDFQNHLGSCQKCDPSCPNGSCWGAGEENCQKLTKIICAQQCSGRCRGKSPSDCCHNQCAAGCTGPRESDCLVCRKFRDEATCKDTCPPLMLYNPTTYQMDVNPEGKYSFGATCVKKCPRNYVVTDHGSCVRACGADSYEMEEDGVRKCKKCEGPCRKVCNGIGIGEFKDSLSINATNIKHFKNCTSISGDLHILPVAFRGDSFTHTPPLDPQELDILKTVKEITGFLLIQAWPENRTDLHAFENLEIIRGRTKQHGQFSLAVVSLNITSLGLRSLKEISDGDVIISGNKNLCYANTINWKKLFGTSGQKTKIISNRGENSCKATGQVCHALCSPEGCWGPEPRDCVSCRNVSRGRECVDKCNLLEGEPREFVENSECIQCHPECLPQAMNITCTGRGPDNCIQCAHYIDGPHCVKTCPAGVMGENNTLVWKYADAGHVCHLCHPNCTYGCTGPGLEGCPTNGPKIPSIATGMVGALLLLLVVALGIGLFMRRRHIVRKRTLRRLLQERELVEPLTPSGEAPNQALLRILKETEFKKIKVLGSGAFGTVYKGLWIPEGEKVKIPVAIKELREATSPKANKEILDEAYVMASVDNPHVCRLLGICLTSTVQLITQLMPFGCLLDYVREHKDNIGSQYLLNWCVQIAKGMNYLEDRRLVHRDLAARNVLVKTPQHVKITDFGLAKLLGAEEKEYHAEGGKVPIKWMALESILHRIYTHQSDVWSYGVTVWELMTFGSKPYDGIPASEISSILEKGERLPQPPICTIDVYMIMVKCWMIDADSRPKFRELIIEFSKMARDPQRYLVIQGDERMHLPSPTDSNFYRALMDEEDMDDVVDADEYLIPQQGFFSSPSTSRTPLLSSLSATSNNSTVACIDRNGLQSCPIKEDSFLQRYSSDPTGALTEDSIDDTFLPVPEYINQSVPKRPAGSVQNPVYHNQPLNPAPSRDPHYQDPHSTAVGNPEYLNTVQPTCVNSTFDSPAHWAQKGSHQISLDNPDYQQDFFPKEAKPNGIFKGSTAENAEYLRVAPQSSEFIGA
Method in brief: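 HTRF KinEASE-TK format: EGFR pre-incubated with compound at 1 and 10 uM final (0.5% DMSO) in kinase buffer with 2 mM MnCl2, 5 mM MgCl2 and 1 mM TCEP.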

BMX = BMX (Homo sapiens (Human), UniProt P51813); experiment: HTRF KinEASE-TK kinase assay, BMX; assay type: biochemical; conditions: for remaining activity at 1 µM: 1 uM compound; for remaining activity at 1 µM / remaining activity at 10 µM: 3 h preincubation; for remaining activity at 10 µM: 10 uM compound
BMX, sequence (P51813 whole entry): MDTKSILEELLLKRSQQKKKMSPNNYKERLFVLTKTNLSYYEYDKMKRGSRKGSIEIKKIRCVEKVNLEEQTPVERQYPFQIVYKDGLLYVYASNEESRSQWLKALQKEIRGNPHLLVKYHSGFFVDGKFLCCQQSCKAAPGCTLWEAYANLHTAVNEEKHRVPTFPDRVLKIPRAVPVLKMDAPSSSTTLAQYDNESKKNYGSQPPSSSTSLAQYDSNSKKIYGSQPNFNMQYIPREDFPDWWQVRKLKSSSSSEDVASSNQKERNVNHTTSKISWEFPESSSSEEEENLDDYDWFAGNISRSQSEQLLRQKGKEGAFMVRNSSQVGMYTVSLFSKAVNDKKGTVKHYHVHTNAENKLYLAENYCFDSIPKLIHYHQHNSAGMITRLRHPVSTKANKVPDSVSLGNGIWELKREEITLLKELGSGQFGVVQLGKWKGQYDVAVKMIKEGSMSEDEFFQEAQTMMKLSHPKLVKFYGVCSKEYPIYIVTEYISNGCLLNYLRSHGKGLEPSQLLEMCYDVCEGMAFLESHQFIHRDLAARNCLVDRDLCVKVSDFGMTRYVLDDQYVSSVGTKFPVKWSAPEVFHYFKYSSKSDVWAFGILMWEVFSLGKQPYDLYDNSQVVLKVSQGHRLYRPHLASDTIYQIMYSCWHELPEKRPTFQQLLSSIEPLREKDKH
Method in brief: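 Purchased BMX (0.333 ng/ul, 3.03 nM) was preincubated with or without inhibitor for 3 h at room temperature, then biotinylated substrate and ATP were added. Reactions were stopped with EDTA-containing buffer holding 31.25 nM SA-XL665 and Eu-antibody, and after 60 min phosphorylation was read as the HTRF 665/620 nm emission ratio.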

EGFR [3] = molecular target: T1, EGFR; experiment: Time-dependent inhibition of EGFR (HTRF); assay type: biochemical; conditions: pre-incubation 0-60 min
Protocol: For the time-dependent inhibition experiments, the activity of EGFR kinase was monitored using a HTRF® KinEASE-TK kit from Cisbio (62TK0PEC) as described above. Six compounds showing higher potency during dose response analysis against EGFR, were further evaluated for their change in inhibitory potency over time. Ibrutinib was used as a positive control. The selected compounds were pre incubated with the kinase at 11 different concentrations, ranging from […] to 25 uM final compound concentrations. The pre incubation times were 0, 2, 5, 10, 15, 30, 45 and 60 min. After the preincubation, the reaction was initiated by adding biotinylated substrate and ATP and the reaction was allowed to proceed for 45 min. […] The reaction was terminated by adding 31.25 nM SA-XL665 and 100 fold diluted europium labelled antibody (Eu-Ab), diluted in 1× detection buffer that contained EDTA. After 60 min of incubation, the fluorescence emission was measured at 620 nm and 665 nm. The ratio of Em 665 nm to Em 620 nm was proportional to the amount of substrate phosphorylated by the kinase. Product formation vs pre-incubation time data were fitted to a one phase exponential decay equation using GraphPad Prism. The same product formation vs inhibitor concentration data were also fitted to a log(antagonist) vs. response—Variable slope equation in GraphPad Prism to provide IC50 values at different pre incubation times.

COc1ccc(NS(=O)(=O)c2c(F)c(F)c(F)c(F)c2C(F)(F)F)cc1F [Compound I-6, 2,3,4,5-tetrafluoro-N-(3-fluoro-4-methoxyphenyl)-6-(trifluoromethyl) benzenesulfonamide]
Beta-tubulin - K562 24 hrs (1 μM) (β-Tubulin): Y
Beta-tubulin K562, compound concentration, 24 hrs (β-Tubulin; compound concentration 10): Y

COc1ccc(N(C)S(=O)(=O)c2c(F)c(F)c(F)c(F)c2C(F)(F)F)cc1F [Compound I-7, 2,3,4,5-tetrafluoro-N-(3-fluoro-4-methoxyphenyl)-N-methyl-6-(trifluoromethyl) benzenesulfonamide]
Beta-tubulin - K562 24 hrs (1 μM) (β-Tubulin): Y
Beta-tubulin K562, compound concentration, 24 hrs (β-Tubulin; compound concentration 0.5): Y

COc1ccc(NC(=O)c2c(F)c(F)c(F)c(F)c2S(=O)(=O)N(C)C)cc1F [Compound I-9, 2-(N,N-dimethylsulfamoyl)-3,4,5,6-tetrafluoro-N-(3-fluoro-4-methoxyphenyl) benzamide]
Beta-tubulin K562, compound concentration, 24 hrs (β-Tubulin; compound concentration 10): Y

COc1ccc(/N=C/c2c(F)c(F)c(F)c(F)c2S(C)(=O)=O)cc1F [Compound I-11, (E)-N-(3-fluoro-4-methoxyphenyl)-1-(2,3,4,5-tetrafluoro-6-(methylsulfonyl)phenyl) methanimine]
Beta-tubulin K562, compound concentration, 24 hrs (β-Tubulin; compound concentration 0.5): Y

COc1ccc(CS(=O)(=O)c2c(F)c(F)c(F)c(F)c2OC(F)F)cc1F [Compound I-15, 1-(difluoromethoxy)-2,3,4,5-tetrafluoro-6-((3-fluoro-4-methoxybenzyl)sulfonyl) benzene]
Beta-tubulin K562, compound concentration, 24 hrs (β-Tubulin; compound concentration 10): Y

COc1ccc(CS(=O)(=O)c2c(F)c(F)c(F)c(F)c2OCc2ccccc2)cc1F [Compound I-16, 1-(benzyloxy)-2,3,4,5-tetrafluoro-6-((3-fluoro-4-methoxybenzyl)sulfonyl)benzene]
Beta-tubulin K562, compound concentration, 24 hrs (β-Tubulin; compound concentration 10): Y

COc1ccc(OCc2c(F)c(F)c(F)c(F)c2S(C)(=O)=O)cc1F [Compound I-17, 1,2,3,4-tetrafluoro-5-((3-fluoro-4-methoxyphenoxy)methyl)-6-(methylsulfonyl) benzene]
Beta-tubulin K562, compound concentration, 24 hrs (β-Tubulin; compound concentration 5): Y

COCCOc1ccc(Nc2ncc(F)c(NCCCNS(=O)(=O)c3c(F)c(F)c(F)c(F)c3OC(F)F)n2)cc1 [Compound I-55, 2-(difluoromethoxy)-3,4,5,6-tetrafluoro-N-(3-((5-fluoro-2-((4-(2-methoxyethoxy)phenyl)amino)pyrimidin-4-yl)amino)propyl)benzenesulfonamide]
remaining activity at 1 µM (BTK): < 50%
remaining activity at 10 µM (BTK): < 50%
covalent adduct mass (intact mass analysis, modification by one molecule) [1]: 33,243 Da
remaining activity at 1 µM (FGFR4): 50 to 90%
remaining activity at 10 µM (FGFR4): < 50%
IC50 (JAK3; dose response): < 1000 nM
remaining activity at 1 µM (JAK3): < 50%
remaining activity at 10 µM (JAK3): < 50%
remaining activity at 1 µM (EGFR [2]): > 90%
remaining activity at 10 µM (EGFR [2]): > 90%
remaining activity at 1 µM (BMX): < 50%
remaining activity at 10 µM (BMX): < 50%

COCCOc1ccc(Nc2ncc(F)c(NCCCNS(=O)(=O)c3c(F)c(F)c(F)c(F)c3CF)n2)cc1 [Compound I-56, 2,3,4,5-tetrafluoro-N-(3-((5-fluoro-2-((4-(2-methoxyethoxy)phenyl)amino)pyrimidin-4-yl)amino)propyl)-6-(fluoromethyl)benzenesulfonamide]
remaining activity at 1 µM (BTK): < 50%
remaining activity at 10 µM (BTK): < 50%
covalent adduct mass (intact mass analysis, modification by one molecule) [1]: 33,209 Da
remaining activity at 1 µM (FGFR4): 50 to 90%
remaining activity at 10 µM (FGFR4): < 50%
remaining activity at 1 µM (JAK3): < 50%
remaining activity at 10 µM (JAK3): < 50%
remaining activity at 1 µM (EGFR [2]): > 90%
remaining activity at 10 µM (EGFR [2]): > 90%
remaining activity at 1 µM (BMX): < 50%
remaining activity at 10 µM (BMX): < 50%
IC50 (BMX; dose response): < 1000 nM

C=CC(=O)N1CCC[C@@H](n2nc(-c3ccc(Oc4ccccc4)cc3)c3c(N)ncnc32)C1 [ibrutinib, reference compound]
Time-dependent inhibition of EGFR: product formation versus pre-incubation time (EGFR [3]; mono-exponential decay fit): concentration-dependent first order loss of enzyme activity
Time-dependent inhibition of EGFR: IC50 values versus pre-incubation time (EGFR [3]): decrease as pre-incubation times increase
